# Tests used:
# [1] = tested on: T-Rex 293 cell line SC3 cells having increased expression of androgen receptor protein due to exposure to doxycycline; test: Cellular growth inhibition, T-Rex 293 SC3 cells with doxycycline (androgen receptor induced), CellTiter-Glo; assay type: cell-based; conditions: T-Rex 293 SC3 cells with 10 ng/mL doxycycline (increased androgen receptor expression)
# Outline: (§1)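 Luminescence read-out (CellTiter-Glo 2.0) after 72 h compound exposure; GI50 by four-parameter nonlinear regression, baseline set at zero luminescence. SC3 cells, a doxycycline-inducible wild-type AR clone of T-Rex 293, were cultured ±10 ng/mL doxycycline in charcoal-dextran FBS medium.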
# [2] = tested on: T47D cells; test: Cellular growth inhibition assay for T47D cells, CellTiter-Glo; assay type: cell-based, human; conditions: 72 hours treatment, CellTiter-Glo 2.0 cell viability
# Outline: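 Luminescence from CellTiter-Glo 2.0 after 72 h of compound exposure gives the viability signal. Cells grew in insulin-supplemented (0.2 units/mL) DMEM with 10% FBS and were treated one day after seeding at 0.5% DMSO. GI50 values come from four-parameter nonlinear regression.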
# [3] = tested on: T-Rex 293 cell line SC3 cells lacking increased expression of androgen receptor protein; test: Cellular growth inhibition, T-Rex 293 SC3 cells without doxycycline, CellTiter-Glo; assay type: cell-based; conditions: T-Rex 293 SC3 cells not exposed to doxycycline, CellTiter-Glo 2.0
# Outline: as §1
# [4] = tested on: VCaP cells; test: Cellular growth inhibition assay for VCaP cells, CellTiter-Glo; assay type: cell-based, human; conditions: 72 hours treatment, CellTiter-Glo 2.0
# Outline: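 GI50 values come from four-parameter curve fits of luminescence data normalized to a zero baseline. Compound, in medium with 0.5% DMSO, was added one day after plating and left for 72 h before CellTiter-Glo 2.0 addition.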
SMILES,GI50 ([1]; 72 h),"GI50 ([2]; Homo sapiens, T47D, 72 h)",GI50 ([3]; 72 h),"GI50 ([4]; Homo sapiens, VCaP, 72 h)",GI50 ([1]; 72 hours),GI50 [2],GI50 ([3]; 72 hours),GI50 [4]
Cc1sc2c(c1C)C(c1ccc(OCCOC3CCN(c4ncc(C(=O)N[C@H]5C(C)(C)[C@H](Oc6ccc(C#N)c(Cl)c6)C5(C)C)cn4)CC3)cc1)=N[C@@H](CC(=O)NC1CC1)c1nnc(C)n1-2 [Compound I-67],< 500 nM,500 to 1500 nM,< 500 nM,< 500 nM,,,,
Cc1sc2c(c1C)C(c1ccc(CN3CC[C@]4(CCCN(c5ncc(C(=O)N[C@H]6C(C)(C)[C@H](Oc7ccc(C#N)c(Cl)c7)C6(C)C)cn5)C4)C3)cc1)=N[C@@H](Cc1ncco1)c1nnc(C)n1-2 [Compound I-145],< 500 nM,< 500 nM,< 500 nM,< 500 nM,,,,
CC[C@@H]1N=C(c2ccc(OC3CC4(C3)CC3(CCN(c5ncc(C(=O)N[C@H]6C(C)(C)[C@H](Oc7ccc(C#N)c(Cl)c7)C6(C)C)cn5)CC3)C4)cc2)c2c(sc(C)c2C)-n2c(C)nnc21 [Compound I-606],< 500 nM,> 3000 nM,> 3000 nM,< 500 nM,,,,
Cc1sc2c(c1C)C(c1ccc(CCCOC3CCN(c4ncc(C(=O)N[C@H]5C(C)(C)[C@H](Oc6ccc(C#N)c(Cl)c6)C5(C)C)cn4)CC3)cc1)=N[C@H](Cc1ccccn1)c1nnc(C)n1-2 [Compound I-213],< 500 nM,< 500 nM,> 3000 nM,< 500 nM,,,,
Cc1sc2c(c1C)C(c1ccc(N3CC(C4CCCN(c5ncc(C(=O)N[C@H]6C(C)(C)[C@H](Oc7ccc(C#N)c(Cl)c7)C6(C)C)cn5)C4)C3)cc1)=N[C@@H](C)c1nnc(C)n1-2 (stereo partly shown) [Compound I-474],,,,,< 500 nM,< 500 nM,500 to 1500 nM,> 3000 nM
Cc1sc2c(c1C)C(c1ccc(N3CC(CC4CCN(c5cnc(C(=O)N[C@H]6C(C)(C)[C@H](Oc7ccc(C#N)c(Cl)c7)C6(C)C)cn5)CC4)C3)cc1)=N[C@@H](C)c1nnc(C)n1-2 [Compound I-450],500 to 1500 nM,< 500 nM,> 3000 nM,> 3000 nM,,,,
Cc1sc2c(c1C)C(c1ccc(C3CC3C3CC4(CCN(c5ncc(C(=O)N[C@H]6C(C)(C)[C@H](Oc7ccc(C#N)c(Cl)c7)C6(C)C)cn5)CC4)C3)cc1)=N[C@@H](Cc1ncco1)c1nnc(C)n1-2 (stereo partly shown) [Compound I-238],,,,,< 500 nM,< 500 nM,> 3000 nM,< 500 nM
Cc1sc2c(c1C)C(c1ccc(N3CCCC(CN(C)c4ncc(C(=O)N[C@H]5C(C)(C)[C@H](Oc6ccc(C#N)c(Cl)c6)C5(C)C)cn4)C3)cc1)=N[C@@H](Cc1ncco1)c1nnc(C)n1-2 (stereo partly shown) [Compound I-650],< 500 nM,500 to 1500 nM,> 3000 nM,500 to 1500 nM,,,,
Cc1sc2c(c1C)C(c1ccc(CNC(=O)NCc3ncc(C(=O)N[C@H]4C(C)(C)[C@H](Oc5ccc(C#N)c(Cl)c5)C4(C)C)cn3)cc1)=N[C@@H](Cc1ncco1)c1nnc(C)n1-2 [Compound I-326],500 to 1500 nM,1500 to 3000 nM,> 3000 nM,500 to 1500 nM,,,,
Cc1sc2c(c1C)C(c1ccc(CC[C@H]3CC[C@]4(CCCN(c5ncc(C(=O)N[C@H]6C(C)(C)[C@H](Oc7ccc(C#N)c(Cl)c7)C6(C)C)cn5)C4)C3)cc1)=N[C@H](Cc1ncco1)c1nnc(C)n1-2 [Compound I-251],< 500 nM,< 500 nM,> 3000 nM,< 500 nM,,,,
Cc1sc2c(c1C)C(c1ccc(CNC(=O)C3CCN(c4ncc(C(=O)N[C@H]5C(C)(C)[C@H](Oc6ccc(C#N)c(Cl)c6)C5(C)C)cn4)CC3)cc1)=N[C@@H](Cc1ncco1)c1nnc(C)n1-2 [Compound I-263],< 500 nM,< 500 nM,1500 to 3000 nM,< 500 nM,,,,
Cc1sc2c(c1C)C(c1ccc(O[C@H]3COC4(C3)CN(c3ncc(C(=O)N[C@H]5C(C)(C)[C@H](Oc6ccc(C#N)c(Cl)c6)C5(C)C)cn3)C4)cc1)=N[C@@H](Cc1ncco1)c1nnc(C)n1-2 [Compound I-181],< 500 nM,< 500 nM,< 500 nM,< 500 nM,,,,
Cc1sc2c(c1C)C(c1ccc(C3CC(C4CCN(c5ncc(C(=O)N[C@H]6C(C)(C)[C@H](Oc7ccc(C#N)c(Cl)c7)C6(C)C)cn5)CC4)C3)cc1)=NC(C)c1nnc(C)n1-2 (stereo partly shown) [Compound I-466],,,,,< 500 nM,< 500 nM,> 3000 nM,> 3000 nM
Cc1sc2c(c1C)C(c1ccc(O[C@H]3C[C@]4(CCCN(c5ncc(C(=O)N[C@H]6C(C)(C)[C@H](Oc7ccc(C#N)c(Cl)c7)C6(C)C)cn5)C4)C3)cc1)=N[C@@H](C)c1nnc(C)n1-2 [Compound I-410],< 500 nM,> 3000 nM,> 3000 nM,> 3000 nM,,,,
Cc1sc2c(c1C)C(c1ccc(N3CC(CC4CN(c5ncc(C(=O)N[C@H]6C(C)(C)[C@H](Oc7ccc(C#N)c(Cl)c7)C6(C)C)cn5)C4)C3)cc1)=N[C@@H](C)c1nnc(C)n1-2 [Compound I-514],< 500 nM,500 to 1500 nM,> 3000 nM,> 3000 nM,,,,
Cc1noc2c1-c1ccccc1C(c1ccc(OC3CC4(CCN(c5ncc(C(=O)N[C@H]6C(C)(C)[C@H](Oc7ccc(C#N)c(Cl)c7)C6(C)C)cn5)CC4)C3)cc1)=N[C@H]2Cc1ncco1 [Compound I-222],< 500 nM,> 3000 nM,> 3000 nM,< 500 nM,,,,
Cc1sc2c(c1C)C(c1ccc(C[C@H]3C[C@]4(CCCN(c5ncc(C(=O)N[C@H]6C(C)(C)[C@H](Oc7ccc(C#N)c(Cl)c7)C6(C)C)cn5)C4)C3)cc1)=N[C@@H](Cc1ncco1)c1nnc(C)n1-2 [Compound I-157],< 500 nM,500 to 1500 nM,> 3000 nM,500 to 1500 nM,,,,
Cc1sc2c(c1C)C(c1ccc(OC3CCN(c4ncc(C(=O)N[C@H]5C(C)(C)[C@H](Oc6ccc(C#N)c(Cl)c6)C5(C)C)cn4)CC3)cc1)=N[C@@H](C)c1nnc(C)n1-2 [Compound I-261],< 500 nM,500 to 1500 nM,1500 to 3000 nM,500 to 1500 nM,,,,
Cc1sc2c(c1C)C(c1ccc(C3(C4CC5(CCN(c6ncc(C(=O)N[C@H]7C(C)(C)[C@H](Oc8ccc(C#N)c(Cl)c8)C7(C)C)cn6)CC5)C4)CC3)cc1)=N[C@@H](Cc1ncco1)c1nnc(C)n1-2 [Compound I-525],< 500 nM,< 500 nM,> 3000 nM,< 500 nM,,,,
CCNC(=O)C[C@@H]1N=C(c2ccc(OCCC3CCN(c4ncc(C(=O)N[C@H]5C(C)(C)[C@H](Oc6ccc(C#N)c(Cl)c6)C5(C)C)cn4)CC3)cc2)c2c(sc(C)c2C)-n2c(C)nnc21 [Compound I-69],< 500 nM,500 to 1500 nM,< 500 nM,< 500 nM,,,,
Cc1sc2c(c1C)C(c1ccc(OCC[C@H]3CCCN(c4ncc(C(=O)N[C@H]5C(C)(C)[C@H](Oc6ccc(C#N)c(Cl)c6)C5(C)C)cn4)C3)cc1)=N[C@@H](Cc1ncco1)c1nnc(C)n1-2 [Compound I-301],< 500 nM,< 500 nM,500 to 1500 nM,< 500 nM,,,,
CC[C@@H]1N=C(c2ccc(C#CC3CC4(C3)CN(c3cnc(C(=O)N[C@H]5C(C)(C)[C@H](Oc6ccc(C#N)c(Cl)c6)C5(C)C)cn3)C4)cc2)c2c(sc(C)c2C)-n2c(C)nnc21 [Compound I-583],< 500 nM,< 500 nM,500 to 1500 nM,< 500 nM,,,,
Cc1sc2c(c1C)C(c1ccc(C3CC(CC4CN(c5ncc(C(=O)N[C@H]6C(C)(C)[C@H](Oc7ccc(C#N)c(Cl)c7)C6(C)C)cn5)C4)C3)cc1)=NC(Cc1ncco1)c1nnc(C)n1-2 (stereo partly shown) [Compound I-476],< 500 nM,< 500 nM,< 500 nM,< 500 nM,,,,
Cc1sc2c(c1C)C(c1ccc(CCCCC3CCN(c4ncc(C(=O)N[C@H]5C(C)(C)[C@H](Oc6ccc(C#N)c(Cl)c6)C5(C)C)cn4)CC3)cc1)=NC(Cc1ncco1)c1nnc(C)n1-2 (stereo partly shown) [Compound I-135],< 500 nM,< 500 nM,> 3000 nM,< 500 nM,,,,
Cc1sc2c(c1C)C(c1ccc(COC3CC4(CCCN(c5ncc(C(=O)N[C@H]6C(C)(C)[C@H](Oc7ccc(C#N)c(Cl)c7)C6(C)C)cn5)C4)C3)cc1)=N[C@@H](C)c1nnc(C)n1-2 [Compound I-395],< 500 nM,< 500 nM,> 3000 nM,< 500 nM,,,,
Cc1sc2c(c1C)C(c1ccc(C3CN(C4CCN(c5ncc(C(=O)N[C@H]6C(C)(C)[C@H](Oc7ccc(C#N)c(Cl)c7)C6(C)C)cn5)CC4)C3)cc1)=N[C@@H](Cc1ncco1)c1nnc(C)n1-2 [Compound I-247],< 500 nM,< 500 nM,< 500 nM,< 500 nM,,,,
COCC[C@@H]1N=C(c2ccc(CC3CC4(CCN(c5ccc(C(=O)N[C@H]6C(C)(C)[C@H](Oc7ccc(C#N)c(Cl)c7)C6(C)C)cn5)CC4)C3)cc2)c2c(sc(C)c2C)-n2c(C)nnc21 [Compound I-599],< 500 nM,< 500 nM,> 3000 nM,< 500 nM,,,,
COCC[C@@H]1N=C(c2ccc(OC3CC4(CCN(c5ncc(C(=O)N[C@H]6C(C)(C)[C@H](Oc7ccc(C#N)c(Cl)c7)C6(C)C)cn5)CC4)C3)cc2)c2c(sc(C)c2C)-n2c(C)nnc21 [Compound I-566],< 500 nM,> 3000 nM,> 3000 nM,< 500 nM,,,,

# Source: patent US20260062422A1 (Halda Therapeutics OpCo, Inc., priority 2022, published 2026)
